Test results from the supplement of paper PMC10307832.

Key:
Test in all cases: relative viability (nuclei count vs DMSO), 5 days (fraction); higher = more cells survive
[1] = test system: A-427
Summary of the method: (§1)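 Relative viability divides the nuclei count in treated wells by that in vehicle wells. Lung cancer cell lines were seeded in 1536-well plates, dosed by pin tool the next day, and fixed and stained after 5 days in one step with final 0.05% Triton X-100, 1% formaldehyde and 1 ug/ml Hoechst. Dosing was a single drug or a fixed anchor-drug dose plus five library-drug doses (not always all listed) in √10 steps, and values are medians of duplicate plates imaged at 4×.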

[2] = test system: BEN
Summary of the method: as §1

[3] = test system: ChaGo-K-1
Summary of the method: as §1

[4] = test system: EKVX
Summary of the method: as §1

[5] = test system: LK-2
Summary of the method: as §1

[6] = test system: NCI-H1650
Summary of the method: as §1

[7] = test system: NCI-H1755
Summary of the method: as §1

[8] = test system: NCI-H2085
Summary of the method: as §1

[9] = test system: NCI-H2228
Summary of the method: as §1

[10] = test system: NCI-H2347
Summary of the method: as §1

[11] = test system: NCI-H3122
Summary of the method: as §1

[12] = test system: NCI-H322M
Summary of the method: as §1

[13] = test system: NCI-H358
Summary of the method: as §1

[14] = test system: NCI-H460
Summary of the method: as §1

[15] = test system: NCI-H520
Summary of the method: as §1

[16] = test system: NCI-H596
Summary of the method: as §1

[17] = test system: NCI-H650
Summary of the method: as §1

[18] = test system: NCI-H727
Summary of the method: as §1

[19] = test system: NCI-H838
Summary of the method: as §1

[20] = test system: SW 1573
Summary of the method: as §1

[21] = test system: SW 900
Summary of the method: as §1

**Q.** `COCC1(CO)C(=O)C2CCN1CC2` (stereo not given) [PRIMA-1MET] + O=C(CCCCCCC(=O)Nc1ccccc1)NO [Vorinostat] (partner 1 µM) was tested. Which relative viability ([1]; first compound 0.2 µM) did it give?
**A.** 1.1

**Q.** What about the relative viability ([1]; first compound 0.6325 µM) of the same compound?
**A.** 0.869

**Q.** And the relative viability ([1]; first compound 2 µM)?
**A.** 0.856

**Q.** And the relative viability ([1]; first compound 6.325 µM)?
**A.** 0.949

**Q.** And the relative viability ([1]; first compound 20 µM)?
**A.** 0.865

**Q.** And the relative viability ([2]; first compound 0.2 µM)?
**A.** 0.664

**Q.** What about the relative viability ([2]; first compound 0.6325 µM) of the same compound?
**A.** 0.389

**Q.** What about the relative viability ([2]; first compound 6.325 µM) of the same compound?
**A.** 0.571

**Q.** And the relative viability ([2]; first compound 20 µM)?
**A.** 0.613

**Q.** What about the relative viability ([3]; first compound 0.2 µM) of the same compound?
**A.** 0.858

**Q.** And the relative viability ([3]; first compound 0.6325 µM)?
**A.** 0.431

**Q.** What about the relative viability ([3]; first compound 2 µM) of the same compound?
**A.** 0.627

**Q.** What about the relative viability ([3]; first compound 6.325 µM) of the same compound?
**A.** 0.743

**Q.** And the relative viability ([3]; first compound 20 µM)?
**A.** 0.709

**Q.** What about the relative viability ([4]; first compound 0.2 µM) of the same compound?
**A.** 0.995

**Q.** And the relative viability ([4]; first compound 0.6325 µM)?
**A.** 0.548

**Q.** And the relative viability ([4]; first compound 2 µM)?
**A.** 0.672

**Q.** What about the relative viability ([4]; first compound 6.325 µM) of the same compound?
**A.** 0.849

**Q.** And the relative viability ([4]; first compound 20 µM)?
**A.** 0.64

**Q.** What about the relative viability ([5]; first compound 0.2 µM) of the same compound?
**A.** 0.181

**Q.** What about the relative viability ([5]; first compound 0.6325 µM) of the same compound?
**A.** 0.255

**Q.** And the relative viability ([5]; first compound 2 µM)?
**A.** 0.166

**Q.** And the relative viability ([5]; first compound 6.325 µM)?
**A.** 0.325

**Q.** And the relative viability ([5]; first compound 20 µM)?
**A.** 0.0975

**Q.** And the relative viability ([6]; first compound 0.2 µM)?
**A.** 0.619

**Q.** And the relative viability ([6]; first compound 0.6325 µM)?
**A.** 0.403

**Q.** And the relative viability ([6]; first compound 2 µM)?
**A.** 0.55

**Q.** What about the relative viability ([6]; first compound 6.325 µM) of the same compound?
**A.** 0.703

**Q.** What about the relative viability ([6]; first compound 20 µM) of the same compound?
**A.** 0.406

**Q.** What about the relative viability ([7]; first compound 0.2 µM) of the same compound?
**A.** 0.944

**Q.** What about the relative viability ([7]; first compound 0.6325 µM) of the same compound?
**A.** 0.765

**Q.** What about the relative viability ([7]; first compound 2 µM) of the same compound?
**A.** 0.721

**Q.** What about the relative viability ([7]; first compound 6.325 µM) of the same compound?
**A.** 0.748

**Q.** And the relative viability ([7]; first compound 20 µM)?
**A.** 0.663

**Q.** What about the relative viability ([8]; first compound 0.2 µM) of the same compound?
**A.** 1.06

**Q.** And the relative viability ([8]; first compound 0.6325 µM)?
**A.** 0.776

**Q.** What about the relative viability ([8]; first compound 2 µM) of the same compound?
**A.** 0.706

**Q.** What about the relative viability ([8]; first compound 6.325 µM) of the same compound?
**A.** 0.798

**Q.** And the relative viability ([8]; first compound 20 µM)?
**A.** 0.154

**Q.** And the relative viability ([9]; first compound 0.2 µM)?
**A.** 0.792

**Q.** What about the relative viability ([9]; first compound 0.6325 µM) of the same compound?
**A.** 0.74

**Q.** And the relative viability ([9]; first compound 2 µM)?
**A.** 0.6

**Q.** What about the relative viability ([9]; first compound 6.325 µM) of the same compound?
**A.** 0.606

**Q.** What about the relative viability ([9]; first compound 20 µM) of the same compound?
**A.** 0.0625

**Q.** What about the relative viability ([10]; first compound 0.2 µM) of the same compound?
**A.** 0.574

**Q.** What about the relative viability ([10]; first compound 0.6325 µM) of the same compound?
**A.** 0.656

**Q.** And the relative viability ([10]; first compound 2 µM)?
**A.** 0.348

**Q.** And the relative viability ([10]; first compound 6.325 µM)?
**A.** 0.551

**Q.** And the relative viability ([10]; first compound 20 µM)?
**A.** 0.327

**Q.** What about the relative viability ([11]; first compound 0.2 µM) of the same compound?
**A.** 1.01

**Q.** What about the relative viability ([11]; first compound 0.6325 µM) of the same compound?
**A.** 0.861

**Q.** What about the relative viability ([11]; first compound 2 µM) of the same compound?
**A.** 0.686

**Q.** What about the relative viability ([11]; first compound 6.325 µM) of the same compound?
**A.** 1.07

**Q.** What about the relative viability ([11]; first compound 20 µM) of the same compound?
**A.** 0.861

**Q.** What about the relative viability ([12]; first compound 0.2 µM) of the same compound?
**A.** 1.05

**Q.** And the relative viability ([12]; first compound 0.6325 µM)?
**A.** 0.806

**Q.** And the relative viability ([12]; first compound 6.325 µM)?
**A.** 0.994

**Q.** And the relative viability ([12]; first compound 20 µM)?
**A.** 0.837

**Q.** And the relative viability ([13]; first compound 0.2 µM)?
**A.** 0.82

**Q.** What about the relative viability ([13]; first compound 0.6325 µM) of the same compound?
**A.** 0.695

**Q.** And the relative viability ([13]; first compound 2 µM)?
**A.** 0.669

**Q.** And the relative viability ([13]; first compound 6.325 µM)?
**A.** 0.786

**Q.** And the relative viability ([13]; first compound 20 µM)?
**A.** 0.163

**Q.** What about the relative viability ([14]; first compound 0.2 µM) of the same compound?
**A.** 0.949

**Q.** And the relative viability ([14]; first compound 0.6325 µM)?
**A.** 0.588

**Q.** What about the relative viability ([14]; first compound 2 µM) of the same compound?
**A.** 0.686

**Q.** And the relative viability ([14]; first compound 6.325 µM)?
**A.** 0.613

**Q.** And the relative viability ([14]; first compound 20 µM)?
**A.** 0.0194

**Q.** What about the relative viability ([15]; first compound 0.2 µM) of the same compound?
**A.** 0.807

**Q.** What about the relative viability ([15]; first compound 2 µM) of the same compound?
**A.** 0.621

**Q.** And the relative viability ([15]; first compound 6.325 µM)?
**A.** 0.652

**Q.** What about the relative viability ([15]; first compound 20 µM) of the same compound?
**A.** 0.149

**Q.** What about the relative viability ([16]; first compound 0.2 µM) of the same compound?
**A.** 0.694

**Q.** And the relative viability ([16]; first compound 0.6325 µM)?
**A.** 0.589

**Q.** And the relative viability ([16]; first compound 2 µM)?
**A.** 0.421

**Q.** And the relative viability ([16]; first compound 6.325 µM)?
**A.** 0.732

**Q.** And the relative viability ([16]; first compound 20 µM)?
**A.** 0.147

**Q.** What about the relative viability ([17]; first compound 0.2 µM) of the same compound?
**A.** 0.54

**Q.** And the relative viability ([17]; first compound 0.6325 µM)?
**A.** 0.361

**Q.** And the relative viability ([17]; first compound 2 µM)?
**A.** 0.442

**Q.** And the relative viability ([17]; first compound 6.325 µM)?
**A.** 0.311

**Q.** What about the relative viability ([17]; first compound 20 µM) of the same compound?
**A.** 0.0619

**Q.** And the relative viability ([18]; first compound 0.2 µM)?
**A.** 0.732

**Q.** What about the relative viability ([18]; first compound 0.6325 µM) of the same compound?
**A.** 0.394

**Q.** And the relative viability ([18]; first compound 6.325 µM)?
**A.** 1.17

**Q.** And the relative viability ([18]; first compound 20 µM)?
**A.** 0.689

**Q.** And the relative viability ([19]; first compound 0.2 µM)?
**A.** 0.769

**Q.** What about the relative viability ([19]; first compound 0.6325 µM) of the same compound?
**A.** 0.691

**Q.** What about the relative viability ([19]; first compound 2 µM) of the same compound?
**A.** 0.694

**Q.** What about the relative viability ([19]; first compound 6.325 µM) of the same compound?
**A.** 0.762

**Q.** And the relative viability ([19]; first compound 20 µM)?
**A.** 0.546

**Q.** And the relative viability ([20]; first compound 0.2 µM)?
**A.** 0.83

**Q.** And the relative viability ([20]; first compound 0.6325 µM)?
**A.** 0.553

**Q.** And the relative viability ([20]; first compound 2 µM)?
**A.** 0.429

**Q.** What about the relative viability ([20]; first compound 6.325 µM) of the same compound?
**A.** 0.0463

**Q.** And the relative viability ([20]; first compound 20 µM)?
**A.** 0.0325

**Q.** And the relative viability ([21]; first compound 0.2 µM)?
**A.** 0.58

**Q.** What about the relative viability ([21]; first compound 0.6325 µM) of the same compound?
**A.** 0.427

**Q.** What about the relative viability ([21]; first compound 6.325 µM) of the same compound?
**A.** 0.504

**Q.** What about the relative viability ([21]; first compound 20 µM) of the same compound?
**A.** 0.129
